In general, IC50 refers to the concentration at which inhibition is half-maximal.

Molecules are shown by their SMILES. Calls of active or inactive are those of the source. The rule behind the calls is not given here.

The target in the experiment is methionyl-tRNA synthetase (Trypanosoma brucei brucei) (UniProt Q38C91). The experiment is described as follows: T. brucei MetRS inhibitors, dose response, biochemical, luminescence (AID 651971). To be noted: recombinant T. brucei MetRS, luminescence (ATP consumption).
Chain of methionyl-tRNA synthetase (Trypanosoma brucei brucei) (Q38C91 1-773): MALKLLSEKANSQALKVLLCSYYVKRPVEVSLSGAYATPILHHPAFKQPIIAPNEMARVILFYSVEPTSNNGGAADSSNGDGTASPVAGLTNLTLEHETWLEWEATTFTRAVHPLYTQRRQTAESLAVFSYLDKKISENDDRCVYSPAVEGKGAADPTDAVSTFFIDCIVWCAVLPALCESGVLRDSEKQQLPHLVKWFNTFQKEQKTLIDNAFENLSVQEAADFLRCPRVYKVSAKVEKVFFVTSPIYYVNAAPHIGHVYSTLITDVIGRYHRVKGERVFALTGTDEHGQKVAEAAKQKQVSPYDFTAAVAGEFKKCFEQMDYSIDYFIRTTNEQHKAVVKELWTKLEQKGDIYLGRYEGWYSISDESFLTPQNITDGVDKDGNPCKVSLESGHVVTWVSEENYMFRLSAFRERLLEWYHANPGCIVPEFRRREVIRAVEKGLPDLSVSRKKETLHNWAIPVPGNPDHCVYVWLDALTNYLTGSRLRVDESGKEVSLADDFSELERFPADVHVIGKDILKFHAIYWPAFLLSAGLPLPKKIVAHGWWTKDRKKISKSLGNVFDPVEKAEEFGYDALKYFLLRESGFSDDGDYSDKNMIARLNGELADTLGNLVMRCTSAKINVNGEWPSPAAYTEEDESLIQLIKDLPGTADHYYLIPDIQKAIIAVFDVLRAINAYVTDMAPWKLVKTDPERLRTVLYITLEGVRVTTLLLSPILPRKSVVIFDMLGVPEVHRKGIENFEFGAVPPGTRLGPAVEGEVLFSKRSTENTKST

As to `Cc1ccc(C(=O)Nn2c(O)c(C=C3N=c4ccccc4=N3)sc2=S)cc1`, the IC50 is > 119 µM (inactive).

Values taken from PubChem BioAssay AID651971 (The Scripps Research Institute Molecular Screening Center, 2013).
